Results taken from US20050063931A1, “Hair-follicle treatment,in particular against hair loss” (priority 2001, published 2005).

Assays:
[1] = tested on: hair follicle; test: Extent of progress of the hair cycle (HCS) 16 days after epilation, FIG. 1; assay type: in vivo, mice; conditions: group C, substance P, no stress
Text: The extent of progress of the cycle in this case was an index of the rate at which the hair follicle progresses from the anagen to the catagen.
With reference to the histogram of FIG. 1, appended to the present description: • the first group of mice (A) underwent no treatment, • the second group (B) was subjected to sonic stress, • the third group (C) was subjected to treatment with substance P, • the fourth group (D) was subjected to treatment with an NK1-receptor antagonist substance, and • the fifth group (E) was subjected to combined stress and NK1-receptor antagonist substance treatment.

[2] = tested on: γδT cells; test: γδT-cell presence (immunohistochemical); assay type: in vivo, mice of the strain CBA/J; conditions: no stress + SP
Procedure: (§1) The tests were carried out in vivo on mice of the strain CBA/J which were pregnant since, as is known, there is a close correlation between exposure to stress and an increase in the percentage of abortions. In order to determine the effect of stress on hair growth, the following biological and immunological parameters were measured: • the number of cells in apoptosis in the hair follicle, • the proliferation of keratinocytes in the hair follicle, • the activity of some immunocytes, in particular, of macrophages, mast cells, and γδT cells. In accordance with a well-established model for the study of stress, some mice were subjected to predetermined doses of ultrasound (sonic stress) for 7 days, to ascertain its impact both on the activity of the hair follicle and on the immune response of the perifollicular region. Another group of mice was subjected to treatment with substance P (SP), and yet others to sonic stress treatment combined with the administration of a NK1-receptor antagonist substance (indicated SP-RA). Upon completion of the above-mentioned treatments, the parameters listed above were measured again and compared with those measured in mice which had not been subjected to any treatment. γδT-cell presence was detected by an immunohistochemical technique (column 8).

[3] = tested on: keratinocytes in the hair follicle; test: Proliferation of keratinocytes in the hair follicle, positive Ki67 cells (immunohistochemical); assay type: in vivo, mice of the strain CBA/J; conditions: no stress + SP
Procedure: as §1, with “The proliferation of the keratinocytes” for “γδT-cell presence”, “measured” for “detected”, “technique by measurement of the positive Ki67 cells” for “technique”, “5).” for “8).”

[4] = tested on: hair follicle; conditions: treatment during telogen stage; cited from earlier work
[5] = tested on: perifollicular macrophages; test: Macrophage presence by expression of Class II MHC glycoprotein; assay type: in vivo, mice of the strain CBA/J; conditions: no stress + SP
Procedure: as §1, with “Macrophage” for “γδT-cell”, “investigated” for “detected”, “detection of the expression of Class II MHC glycoprotein” for “an immunohistochemical technique”, “6).” for “8).”

[6] = Abortions in pregnant mice (sonic stress model); assay type: in vivo, mice of the strain CBA/J; conditions: no stress + SP, pregnant CBA/J mice
Procedure: as §1, with “abortions.” for “abortions. In order to determine the effect of stress on hair growth, the following biological and immunological parameters were measured: • the number of cells in apoptosis in the hair follicle, • the proliferation of keratinocytes in the hair follicle, • the activity of some immunocytes, in particular, of macrophages, mast cells, and γδT cells.”, “treatment.” for “treatment. γδT-cell presence was detected by an immunohistochemical technique (column 8).”

[7] = tested on: hair follicle; test: Cells in apoptosis in the hair follicle by TUNEL technique; assay type: in vivo, mice of the strain CBA/J; conditions: no stress + SP
Procedure: as §1, with “Another group of mice was subjected to treatment with substance P (SP), and yet others to sonic stress treatment combined with the administration of a NK1-receptor antagonist substance (indicated SP-RA).” left out, “The number of cells in apoptosis” for “γδT-cell presence”, “measured” for “detected”, “the TUNEL” for “an immunohistochemical”, “technique in a first region of the hair follicle comprising the infundibulum, the capsular germinal region, and the secondary germinal region” for “technique”, “3), and in a second, more extensive region comprising, in addition to the first region, the epidermis and the parafollicular dermis (column 4).” for “8).”

[8] = tested on: mast cells; test: Mast-cell activity, degranulated mast cells; assay type: in vivo, mice of the strain CBA/J; conditions: no stress + SP
Procedure: as §1, with “Mast-cell activity” for “γδT-cell presence”, “measured” for “detected”, “measuring the percentage of degranulated mast cells relative to the total mast cells present in the field of vision” for “an immunohistochemical technique”, “7).” for “8).”

Substance: Substance P [SP]
- Extent of progress of the cycle (HCS): premature catagen [1]: an effect also well simulated by substance P
- γδ TCR+ (γδT-cell presence) [2]: 1.3
- Ki67+ cells (proliferation of keratinocytes) [3]: 7.7
- Effect on hair follicle treated during the telogen stage [4]: induced to go on to the subsequent anagen stage
- MHC II (macrophage presence) [5]: 11.0
- % Abortions [6]: 19%
- TUNEL+ cells in apoptosis, first region of the hair follicle (infundibulum, capsular germinal region, secondary germinal region) [7]: 8.0
- TUNEL+ cells in apoptosis, second more extensive region (first region plus epidermis and parafollicular dermis) [7]: 9.0
- MC (percentage of degranulated mast cells relative to total mast cells in the field of vision) [8]: 7.9
